In patent US4323550A, “Halogenohydrates of N,N-disubstituted derivatives of piperazine having anticariogenic properties” (priority 1976, dated 1982):

Assays:
in vivo = assay type: in vivo; conditions: in vivo; rat, oral; Lichfield and Wilcoxon
Method: (§1) By way of example there are described below the comparative tests made on difluorohydrate of N,N'-di(hydroxyethyl) piperazine and on fluorohydrate of hexadecylamine or "ELMEX 242".
(§2) The acute toxidity was studies in rats and in mice.
(§3) The animals came from a homogeneous breed. The mice weighed between 19 and 21 g and the rats weighed from 120 to 140 g. The mice were grouped in lots of 10 and the rats in lots of 8.
(§4) The administrations took place orally at a volume of 0.5 ml per 20 g of mouse and 1 ml per 100 g of rat. The LD50 was determined by the method of Lichfield and Wilcoxon.
(§5) As regards the difluorohydrate of N,N'-di(hydroxyethyl) piperazine, the administered solution was prepared by diluting the mother solution to 65.4%, the dilutions being made after having weighed this solution. The administered dose is expressed by weight, taking account of the indicated strength of this solution.
(§6) For the solid "ELMEX 242" an aqueous suspension was prepared with the aid of solubilizing agents (e.g. Tween-polyoxyethylene sorbitan monolaurate). A very thick suspension is then obtained which tends to foam heavily, is difficult to get into the esophageal sound, and the determination of its volume is rendered difficult by the foam.
(§7) The results obtained with the "ELMEX" are therefore rather approximate.

rats = experiment: in vivo; assay type: in vivo; conditions: rat; for Deaths: oral
Method: as §1, §2, §3, §4, §5, §6, §7

## OCCN1CCN(CCO)CC1 [DIFLUOROHYDRATE OF N,N'-DI(HYDROXY-ETHYL) PIPERAZINE]
In vivo
  LD50 at 240 h: 790 mg/kg
rats; in vivo, po
  symptoms / behavior: Some diarrhea and some trembling appear.
rats; 250 mg/kg, D + 1, 8 per lot
  Deaths: 0
rats; 250 mg/kg, D + 2, 8 per lot
  Deaths: 0
rats; 250 mg/kg, D + 5, 8 per lot
  Deaths: 0
rats; 250 mg/kg, D + 10, 8 per lot
  Deaths: 0
rats; 500 mg/kg, D + 1, 8 per lot
  Deaths: 0
rats; 500 mg/kg, D + 2, 8 per lot
  Deaths: 0
rats; 500 mg/kg, D + 5, 8 per lot
  Deaths: 0
rats; 500 mg/kg, D + 10, 8 per lot
  Deaths: 0
rats; 750 mg/kg, D + 1, 8 per lot
  Deaths: 1
rats; 750 mg/kg, D + 2, 8 per lot
  Deaths: 3
rats; 750 mg/kg, D + 5, 8 per lot
  Deaths: 4
rats; 750 mg/kg, D + 10, 8 per lot
  Deaths: 4
rats; 1000 mg/kg, D + 1, 8 per lot
  Deaths: 2
rats; 1000 mg/kg, D + 2, 8 per lot
  Deaths: 5
rats; 1000 mg/kg, D + 5, 8 per lot
  Deaths: 6
rats; 1000 mg/kg, D + 10, 8 per lot
  Deaths: 6
rats; 1250 mg/kg, D + 1, 8 per lot
  Deaths: 5
rats; 1250 mg/kg, D + 2, 8 per lot
  Deaths: 7
rats; 1250 mg/kg, D + 5, 8 per lot
  Deaths: 8
rats; 1250 mg/kg, D + 10, 8 per lot
  Deaths: 8
